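Five concentrations, 48 hours, 96-well plates. The concentration for 50% growth inhibition is given as GI50.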 The source made the active and inactive calls. Rule as the data show it: active = GI50 up to about 1.1 µM and inactive = higher.
Assays:
Test in all cases: inhibition of tumour cell growth, NCI panel, 48 h
[1] = system: HOP-92
[2] = system: SNB-75
[3] = system: HOP-62
[4] = system: NCI-H23
[5] = system: NCI-H522
[6] = system: PC-3
[7] = system: SW-620
[8] = system: SNB-19
[9] = system: U-251
[10] = system: LOX IMVI
[11] = system: UACC-62
[12] = system: MDA-MB-435
[13] = system: MCF7
[14] = system: A549
[15] = system: SN12C
[16] = system: NCI/ADR-RES
[17] = system: OVCAR-5
[18] = system: SR
[19] = system: MDA-MB-231
[20] = system: HCT-15
[21] = system: KM12
[22] = system: COLO 205
[23] = system: SF-539
[24] = system: CAKI-1
[25] = system: M14
[26] = system: NCI-H226
[27] = system: TK-10
[28] = system: CCRF-CEM
[29] = system: Hs-578T
[30] = system: MOLT-4
[31] = system: A498
[32] = system: ACHN
[33] = system: T47D
[34] = system: HL-60
[35] = system: OVCAR-8
[36] = system: SK-MEL-5
[37] = system: DU-145
[38] = system: RXF 393
[39] = system: EKVX
[40] = system: HCT-116
[41] = system: SK-MEL-28
[42] = system: BT-549
[43] = system: OVCAR-4
[44] = system: NCI-H460
[45] = system: MDA-N
[46] = system: IGROV-1
[47] = system: RPMI-8226
[48] = system: SF-295
[49] = system: OVCAR-3
[50] = system: SK-OV-3
[51] = system: UO-31
[52] = system: HT-29
[53] = system: Malme-3M
[54] = system: K562
[55] = system: SF-268
[56] = system: HCC 2998
[57] = system: UACC-257
[58] = system: 786-0
[59] = system: SK-MEL-2

In the case of `C=C(Cl)/C(=C/Cl)CCC(Br)C(C)(C)Cl.C=C(Cl)/C(=C\Cl)CCC(Br)C(C)(C)Cl` (stereo not drawn), the GI50 [1] is reported as > 10000 nM (inactive), the GI50 [2] is reported as > 10000 nM (inactive) and the GI50 [3] is reported as > 10000 nM (inactive). For the same molecule, the GI50 [4] was > 10000 nM (inactive), the GI50 [5] was 9770 nM (inactive) and the GI50 [6] was > 10000 nM (inactive). The GI50 [7] was > 10000 nM (inactive), the GI50 [8] was > 10000 nM (inactive) and the GI50 [9] was > 10000 nM (inactive). The GI50 [10] was > 10000 nM (inactive), the GI50 [11] was > 10000 nM (inactive) and the GI50 [12] was > 10000 nM (inactive). For the same molecule, the GI50 [13] was > 10000 nM (inactive), the GI50 [14] was > 10000 nM (inactive) and the GI50 [15] was > 10000 nM (inactive). For the same molecule, the GI50 [16] was > 10000 nM (inactive), the GI50 [17] was > 10000 nM (inactive) and the GI50 [18] was 5450 nM (inactive). For the same molecule, the GI50 [19] was > 10000 nM (inactive), the GI50 [20] was over 10000 nM and the GI50 [21] was > 10000 nM (inactive). The GI50 [22] was > 10000 nM (inactive), the GI50 [23] was > 10000 nM (inactive) and the GI50 [24] was > 10000 nM (inactive). The GI50 [25] was > 10000 nM (inactive), the GI50 [26] was > 10000 nM (inactive) and the GI50 [27] was > 10000 nM (inactive). The GI50 [28] was 2660 nM (inactive), the GI50 [29] was > 10000 nM (inactive) and the GI50 [30] was 3100 nM (inactive). For the same molecule, the GI50 [31] was > 10000 nM (inactive), the GI50 [32] was > 10000 nM (inactive) and the GI50 [33] was > 10000 nM (inactive). The GI50 [34] was 3560 nM (inactive), the GI50 [35] was > 10000 nM (inactive) and the GI50 [36] was > 10000 nM (inactive). For the same molecule, the GI50 [37] was > 10000 nM (inactive), the GI50 [38] was > 10000 nM (inactive) and the GI50 [39] was > 10000 nM (inactive). The GI50 [40] was > 10000 nM (inactive), the GI50 [41] was > 10000 nM (inactive) and the GI50 [42] was > 10000 nM (inactive). For the same molecule, the GI50 [43] was > 10000 nM (inactive), the GI50 [44] was > 10000 nM (inactive) and the GI50 [45] was > 10000 nM (inactive). The GI50 [46] was > 10000 nM (inactive), the GI50 [47] was > 10000 nM (inactive) and the GI50 [48] was > 10000 nM (inactive). For the same molecule, the GI50 [49] was > 10000 nM (inactive), the GI50 [50] was > 10000 nM (inactive) and the GI50 [51] was > 10000 nM (inactive). For the same molecule, the GI50 [52] was > 10000 nM (inactive), the GI50 [53] was > 10000 nM (inactive) and the GI50 [54] was 5430 nM (inactive). The GI50 [55] was > 10000 nM (inactive), the GI50 [56] was > 10000 nM (inactive) and the GI50 [57] was > 10000 nM (inactive). For the same molecule, the GI50 [58] was > 10000 nM (inactive) and the GI50 [59] was > 10000 nM (inactive).
`CC1=C(O)C(=O)C=C2C1=CC=C1[C@@]2(C)CC[C@@]2(C)[C@@H]3C[C@](C)(C(=O)O)CC[C@]3(C)CC[C@]12C` [CELASTROL] was tested, and the GI50 [1] was 10.1 nM (active), the GI50 [2] was 132 nM (active) and the GI50 [3] was 237 nM (active). For the same molecule, the GI50 [4] was 52.6 nM (active), the GI50 [5] was 14.3 nM (active) and the GI50 [6] was 39.3 nM (active). The GI50 [7] was 19.9 nM (active), the GI50 [8] was 75.7 nM (active) and the GI50 [9] was 29.8 nM (active). For the same molecule, the GI50 [10] was 18.2 nM (active), the GI50 [11] was 23.7 nM (active) and the GI50 [12] was 35.1 nM (active). For the same molecule, the GI50 [13] was 81.8 nM (active), the GI50 [14] was 422 nM (active) and the GI50 [15] was 37.6 nM (active). The GI50 [16] was 25.5 nM (active), the GI50 [17] was 180 nM (active) and the GI50 [18] was < 10 nM (active). The GI50 [19] was 21 nM (active), the GI50 [20] was 11.3 nM and the GI50 [21] was 169 nM (active). The GI50 [22] was 16.6 nM (active), the GI50 [23] was 81.1 nM (active) and the GI50 [24] was 13.5 nM (active). The GI50 [25] was 44.9 nM (active), the GI50 [26] was 160 nM (active) and the GI50 [27] was < 10.5 nM (active). For the same molecule, the GI50 [28] was < 10 nM (active), the GI50 [29] was 42.7 nM (active) and the GI50 [30] was 12.4 nM (active). For the same molecule, the GI50 [31] was 33.5 nM (active), the GI50 [32] was 16.9 nM (active) and the GI50 [33] was 19.8 nM (active). The GI50 [34] was 17.3 nM (active), the GI50 [35] was 22.6 nM (active) and the GI50 [36] was 70 nM (active). The GI50 [37] was 67.5 nM (active), the GI50 [38] was 11.1 nM (active) and the GI50 [39] was 47.1 nM (active). For the same molecule, the GI50 [40] was 22.1 nM (active), the GI50 [41] was 16.4 nM (active) and the GI50 [42] was 12.4 nM (active). For the same molecule, the GI50 [43] was 18.8 nM (active), the GI50 [44] was 149 nM (active) and the GI50 [45] was 23.4 nM (active). For the same molecule, the GI50 [46] was 17.8 nM (active), the GI50 [47] was < 13.6 nM (active) and the GI50 [48] was 194 nM (active). For the same molecule, the GI50 [49] was 26.4 nM (active), the GI50 [50] was 238 nM (active) and the GI50 [51] was 30.8 nM (active). For the same molecule, the GI50 [52] was 33 nM (active), the GI50 [53] was 35.2 nM (active) and the GI50 [54] was 20.1 nM (active). The GI50 [55] was 44.6 nM (active), the GI50 [56] was 30.6 nM (active) and the GI50 [57] was 25.6 nM (active). The GI50 [58] was 14.7 nM (active) and the GI50 [59] was 119 nM (active).
